Measurements as given in US4657891A, “Diuretic peptide, and production and use thereof” (Suntory Limited, priority 1984, dated 1987).
Bridge positions count the residues as written; N and C are the ends. Ends that are not written are not given here.

Tests used:
Male rats [1] = assay: Diuretic and natriuretic test in anesthetized rats, urine collected before and 5 minutes after jugular vein injection (Table 2); assay type: in vivo, rat; conditions: furosemide 1.21 μmole (group IV)
Description: To keep the respiratory tract open, a tracheal cannula (PE-240 Clay-Adams) was inserted into the trachea. An arterial cannula (PE-50) was inserted into a femoral artery for measurement of the blood pressure, and a venous cannula was inserted into a femoral vein for the administration of Ringer's solution.
The collection of urine was carried out for 30 minutes before administration of the test compound, and every five minutes after the administration.
The control group (group I) was administered 50 μl of physiological saline containing only bacitracin.

Male rats [2] = assay: Another test: relative amounts of urine, Na+, K+, Cl- for 30 minutes before and after administration (Table 3); assay type: in vivo, rat; conditions: Furosemide 0.3 μmol
Description: Male rats weighing 300 to 400 grams were anesthetized by intraperitoneal administration of pentobarbital at a dosage of 60 mg/kg, and used for tests of the β-rANP according to the method described in Life Sciences, Vol. 28, pp 89-94.
To keep the respiratory tract open, a tracheal cannula (PE-240 Clay-Adams) was inserted into the trachea. An arterial cannula (PE-50) was inserted into a femoral artery for measurement of the blood pressure, and a venous cannula was inserted into a femoral vein for the administration of Ringer's solution. 1.2 ml of Ringer's solution was infused at a flow rate of 1.2 ml/hour.
A bladder cannula made of silastic tube with a inner diameter of 0.02 inches and an outer diameter of 0.037 inches was inserted into the bladder, and via the cannula, a urine sample was collected into a test tube. The collection of urine was carried out for 30 minutes before administration of the test compound, and every five minutes after the administration.
A predetermined amount of the test compound β-rANP was dissolved in 50 μl of sterilized physiological saline with 5 μg of bacitracin, and the solution was injected into the jugular vein.

Solubility in solvents = assay type: physicochemical
Text: (6) Solubility in solvents: soluble in water, partially in methanol, and acetic acid; insoluble in ethyl acetate, butyl acetate, ethyl ether, hexane, petroleum ether, benzene, and chloroform.

[3] = Repeated administration: antibody production, anaphylaxis shock, toxicity; assay type: in vivo

Compound | Urine volume A (Male rats [1]; A: sample collected 5 minutes after administration) [µL/min] | Urine volume B (Male rats [1]; B: sample collected 30 minutes before administration) [µL/min] | Urine volume, percentage after relating to before (Male rats [2]) [%] | Solubility in solvents (Solubility in solvents; ethyl acetate, butyl acetate, ethyl ether, hexane, petroleum ether, benzene, and chloroform) | Solubility in solvents (Solubility in solvents; methanol, and acetic acid) | Solubility in solvents (Solubility in solvents; water) | toxicity ([3]; in vivo) | anaphylaxis shock ([3]; repeated administration) | production of antibodies ([3]; repeated administration)
NS(=O)(=O)c1cc(C(=O)O)c(NCc2ccco2)cc1Cl [Furosemide, furosemide] | 167 ± 28 | 8.6 ± 1.9 | 497 ± 165 |  |  |  |  |  | 
PSDRSALLKSKLRALLAGPRSLRRSSCFGGRIDRIGAQSGLGCNSFRY (disulfide 27-43) [β-rANP, β-rat atrial natriuretic polypeptide] |  |  |  | insoluble | partially | soluble | little toxicity | does not cause | does not stimulate
